Results from US20260355154A1, “IMPLANTS, COMPOSITIONS, AND METHODS FOR TREATING RETINAL DISEASES AND DISORDERS” (Osanni Bio, Inc., priority 2024, published 2026).
Read-outs that look alike come from different tables or passages of the source.

Key:
[1] = tested on: human embryonic stem-cell derived retinal pigmented epithelium (hESC-RPE); assay: Drusen in vitro assay: APOE/APOE4 deposition induced by 5% human serum; assay type: cell-based; details: for minimal effective concentration: Embryonic stem cell, hESC-RPE, 24 h pre-incubation, then 48 h with 5% human serum
Protocol: (§1) Retinal Pigmented Epithelium Cell Culture: Human embryonic stem-cell derived retinal pigmented epithelium (hESC-RPE) were cultured on Transwell inserts for at least 4 weeks in serum-free XVIVO culture medium. After 4 weeks, polygonal, pigmented monolayers of hESC-RPE were visualized by phase contrast and bright-field microscopy, indicating appropriately matured RPE cells. Drusen assay experiments were performed after the initial 4-week maturation period.
(§2) Drusen Assay: Matured hESC-RPE monolayers were incubated with 5% complement competent human serum (HS) for 48 hours to elicit Drusen formation. After the 48 hour HS incubation period, hESC-RPE monolayers (whole inserts) were fixed with 4% paraformaldehyde for 10 minutes at room temperature. Following fixation, inserts were individually removed from plates and cut out of their holders using a scalpel yielding individual membranes with hESC-RPE monolayers. Membranes were transferred to 24-well plates for storage in phosphate buffered saline with calcium and magnesium (PBS+/+).
Drusen Assay with Atorvastatin Treatment: Matured hESC-RPE inserts were pre-incubated with varying concentrations of atorvastatin (ranging from […]) in both the top and bottom insert compartments for 24 hours in an incubator set at 37 °C with 5% CO2. On the following day, medium was exchanged with fresh culture medium containing atorvastatin and 5% HS and incubated for an additional 48 hours in an incubator set at 37 °C with 5% CO2. After 48 hour incubation period, inserts were fixed and processed for antibody staining.
Fixed membranes were incubated with block solution containing 1% bovine serum albumin (BSA) and 0.1% Triton X in PBS+/+ for 1 hr at room temperature. After the block incubation period, membranes were incubated overnight at 4 °C with primary antibody solution containing 1% BSA and goat anti-APOE4 antibody (1:250) and mouse anti-C5b9 antibody (1:250). On the following day, membranes were washed thrice for 10 min with PBS+/+ and incubated with secondary antibody solution containing 1% BSA and AlexaFluor donkey anti-goat 546 (1:200) and AlexaFluor donkey anti-mouse 488 (1:200) for 1 hr at room temperature in the dark. Following secondary antibody incubation period, membranes were washed thrice for 10 min with PBS+/+ and counterstained with Hoechst solution (1:1000) in PBS+/+ for 10 min at room temperature. Membranes were then transferred to microscope slides and mounted using ProLong Gold anti-fade solution and coverslips. Slides were imaged using a Leica SP8 Scanning Resonant Confocal Microscope using identical settings and laser power. At least 3 fields of view were collected per sample.
Image quantification and figure preparation: Fiji (Image J) software was used for processing all the images. All images were processed with the parameters described below: Contrast adjustment—the value of contrast for the APOE4 channel was set to 90-230 to improve the accuracy of object observation. Thresholding—the cutoff value of the threshold for the APOE4 channel was set as 100 to 255 to identify the pixels as real expressions. Size-Particles with an area larger than 1.5 A.U. were counted as true APOE4 expressions to minimize the likelihood of false positives in the image. Measurements, including deposit counts and the total area, were then exported as a .csv file for analysis. All images were taken in triplicate per treatment. Results are presented as mean±SEM and were graphed using Graph Pad PRISM v6. Statistical significance was established using one-way ANOVA tests followed by Tukey's multiple comparisons test.

[2] = tested on: human embryonic stem-cell derived retinal pigmented epithelium (hESC-RPE); assay: Complement activity: C5b-9 immunostaining in human serum-treated hESC-RPE; assay type: cell-based; details: increasing concentrations of atorvastatin; 5% human serum; FIG. 4
Protocol: as §1
as §2, with “(PBS+/+). […]” for “(PBS+/+).”
Image quantification and figure preparation: Fiji (Image J) software was used for processing all the images. […] Size-Particles with an area larger than 1.5 A.U. were counted as true APOE4 expressions to minimize the likelihood of false positives in the image. […]

[3] = cited from earlier work
[4] = tested on: eye; details: applied topically in the eye; Grant, Toxicology of the Eye; cited from earlier work

SMILES	minimal effective concentration ([1]; read-out: concentration from which APOE deposition area decreased (starting at))	minimal effective concentration ([1]; read-out: concentration from which total counts of APOE deposits decreased (starting at))	total counts of APOE deposits at higher ATV concentrations ([1]; higher ATV concentrations (above 123 nM), 5% human serum, 48 h)	APOE deposition area at higher ATV concentrations ([1]; higher ATV concentrations (above 370 nM), 5% human serum, 48 h)	APOE deposition (area) ([1]; increasing atorvastatin concentrations, 5% human serum, 48 h)	total counts of APOE deposition ([1]; increasing atorvastatin concentrations, 5% human serum, 48 h, FIG. 3)	expression of APOE4 per field of view ([1]; increasing concentrations of atorvastatin, 5% human serum, FIG. 3)	C5b-9 expression / C5b-9 positive puncta per field of view [2]	in vivo metabolism ([3]; in vivo, Handbook of Pesticide Toxicology)	excretion ([3]; urine, after oxidation of benzyl alcohol to benzoic acid and conjugation with glucuronic acid)	excretion (minor route) ([3]; urine, to a lesser extent, benzoic acid conjugated with glycine)	eye damage on topical application [4]
CC(C)c1c(C(=O)Nc2ccccc2)c(-c2ccccc2)c(-c2ccc(F)cc2)n1CC[C@@H](O)C[C@@H](O)CC(=O)O [Atorvastatin, atorvastatin]	0.37 µM	0.123 µM	nearly complete elimination	nearly complete elimination	reduced APOE deposition dose-dependently	reduced the total counts of APOE deposition dose-dependently	decreased expression of APOE4	reduces APOE4 and C5b-9 expression				
O=C(OCc1ccccc1)c1ccccc1 [Benzyl benzoate]									hydrolyzed to benzoic acid and benzyl alcohol	excreted in the urine as benzoylglucuronic acid	excreted in the urine as hippuric acid	no damage
